Legend:
Vero [1] = test: Cytotoxicity against African green monkey Vero cells assessed as reduction in cell viability using compound addition to cell culture cells in log phase of growth and incubated for 48 hrs by MTT assay; format: cell-based, Chlorocebus sabaeus; conditions: Chlorocebus sabaeus, Vero, 48 h; read-out: IC50
A549 [2] = test: Cytotoxicity against human A549 cells assessed as reduction in cell viability using compound addition to cell culture cells in log phase of growth and incubated for 48 hrs by MTT assay; format: functional, cell-based; conditions: Homo sapiens, A549, 48 h; read-out: IC50
MCF7 (Homo sapiens) [3] = test: Ratio of IC50 for cytotoxicity against human MCF7 cells incubated for 48 hrs to IC50 for cytotoxicity against human MCF7 cells incubated for 72 hrs
HeLa [4] = test: Cytotoxicity against human HeLa cells assessed as reduction in cell viability using compound addition to cell culture cells in log phase of growth and incubated for 48 hrs by MTT assay; format: functional, cell-based; conditions: Homo sapiens, HeLa, 48 h; read-out: IC50
MCF7 [5] = test: Ratio of IC50 for cytotoxicity against human MCF7 cells incubated for 48 hrs to IC50 for cytotoxicity against human MCF7 cells incubated for 72 hrs; format: functional
MCF7 [6] = test: Cytotoxicity against human MCF7 cells assessed as reduction in cell viability using compound addition to cell culture cells in lag phase of growth and incubated for 48 hrs by MTT assay; format: functional, cell-based; conditions: Homo sapiens, MCF7, 48 h; read-out: IC50
Vero [7] = test: Cytotoxicity against African green monkey Vero cells assessed as reduction in cell viability using compound addition to cell culture cells in lag phase of growth and incubated for 48 hrs by MTT assay; format: cell-based, Chlorocebus sabaeus; conditions: Chlorocebus sabaeus, Vero, 48 h; read-out: IC50
HeLa [8] = test: Cytotoxicity against human HeLa cells assessed as reduction in cell viability using compound addition to cell culture cells in lag phase of growth and incubated for 48 hrs by MTT assay; format: functional, cell-based; conditions: Homo sapiens, HeLa, 48 h; read-out: IC50
A549 [9] = test: Cytotoxicity against human A549 cells assessed as reduction in cell viability using compound addition to cell culture cells in lag phase of growth and incubated for 48 hrs by MTT assay; format: functional, cell-based; conditions: Homo sapiens, A549, 48 h; read-out: IC50
MCF7 [10] = test: Cytotoxicity against human MCF7 cells assessed as reduction in cell viability using compound addition to cell culture cells in log phase of growth and incubated for 48 hrs by MTT assay; format: functional, cell-based; conditions: Homo sapiens, MCF7, 48 h; read-out: IC50
MCF7 (Homo sapiens) [11] = test: Ratio of IC50 for cytotoxicity against human MCF7 cells incubated for 48 hrs to IC50 for cytotoxicity against human MCF7 cells incubated for 72 hrs; remark: listed apart in the source

| SMILES | IC50 (Vero [1]) [µM] | IC50 (A549 [2]) [µM] | Ratio IC50 (MCF7 (Homo sapiens) [3]) | IC50 (HeLa [4]) [µM] | Ratio IC50 (MCF7 [5]) | IC50 (MCF7 [6]) [µM] | IC50 (Vero [7]) [µM] | IC50 (HeLa [8]) [µM] | IC50 (A549 [9]) [µM] | IC50 (MCF7 [10]) [µM] | Ratio IC50 (MCF7 (Homo sapiens) [11]) |
| --- | --- | --- | --- | --- | --- | --- | --- | --- | --- | --- | --- |
| CC1=C(CO)C(=O)O[C@@H]([C@@H](C)[C@H]2CC[C@H]3[C@@H]4C[C@H]5O[C@]56[C@@H](O)C=C[C@@H](O)[C@]6(C)[C@H]4CC[C@]23C)C1 | 6 | 17.3 | >3 | 17.5 | >3 | 16.8 | 7.1 | 15.8 | > 40 | 7.5 | >3 |
| CC1=C(C=O)C(=O)O[C@@H]([C@@H](C)[C@H]2CC[C@H]3[C@@H]4C[C@H]5O[C@]56[C@@H](O)C=CC(=O)[C@]6(C)[C@H]4CC[C@]23C)C1 | 3.6 | 13.5 | >3 | 10.9 | >3 | 3.7 | 4.4 | 6.5 | 15.7 | 2.1 | >3 |
| CC1=C(CO)C(=O)O[C@@H]([C@@H](C)[C@H]2CC[C@H]3[C@@H]4C[C@@H](O)[C@]5(C=O)C=CC(=O)[C@]5(C)[C@H]4CC[C@]23C)C1 | > 40 | > 40 | >3 | > 40 | >3 | – | – | – | – | > 40 | >3 |
| CC1=C(COC(=O)c2cccc3ccccc23)C(=O)O[C@@H]([C@@H](C)[C@H]2CC[C@H]3[C@@H]4C[C@H]5O[C@]56[C@@H](O)C=CC(=O)[C@]6(C)[C@H]4CC[C@]23C)C1 | 0.6 | 13.7 | >3 | 3.5 | >3 | 0.9 | 0.4 | 2 | 6.4 | 2.2 | >3 |
| CC1=C(COC(=O)CBr)C(=O)O[C@@H]([C@@H](C)[C@H]2CC[C@H]3[C@@H]4C[C@H]5O[C@]56[C@@H](O)C=CC(=O)[C@]6(C)[C@H]4CC[C@]23C)C1 | 1.6 | 4.8 | >3 | 4.9 | >3 | 1.2 | 1.1 | 2.1 | 3.9 | 0.9 | >3 |
| CNc1ccccc1C(=O)OCC1=C(C)C[C@H]([C@@H](C)[C@H]2CC[C@H]3[C@@H]4C[C@H]5O[C@]56[C@@H](O)C=CC(=O)[C@]6(C)[C@H]4CC[C@]23C)OC1=O | 1.6 | 4.7 | >3 | 4.2 | >3 | 1.6 | 1.2 | 1.6 | 3.7 | 1 | >3 |
| CCCCCCCC(=O)OCC1=C(C)C[C@H]([C@@H](C)[C@H]2CC[C@H]3[C@@H]4C[C@H]5O[C@]56[C@@H](OC(=O)CCCCCCC)C=CC(=O)[C@]6(C)[C@H]4CC[C@]23C)OC1=O | 18.3 | > 40 | >3 | > 40 | >3 | 23.8 | 3.3 | 33.8 | > 40 | 33.5 | >3 |

Source: ChEMBL document CHEMBL4190346, “Structure-based design, synthesis, and biological evaluation of withaferin A-analogues as potent apoptotic inducers” (Eur J Med Chem, 2017)
